Data reported in patent EP2801357A1, “Carboxylated stilbenes for activating AMPK and sirtuins” (IMD Natural Solutions GmbH, priority 2013, dated 2014).
Where two headings read alike, the source gives them in different places.

Assays:
human sirtuin-1 (Sirt1) = molecular target: T1, human sirtuin-1 (Sirt1) (Homo sapiens, UniProt Q96EB6); assay: SIRT1 Fluorimetric Drug Discovery Kit, Sirt1 activation; type: biochemical
T1 construct: purchased BioMol, Hamburg, Germany
T1 sequence (Q96EB6 1-747): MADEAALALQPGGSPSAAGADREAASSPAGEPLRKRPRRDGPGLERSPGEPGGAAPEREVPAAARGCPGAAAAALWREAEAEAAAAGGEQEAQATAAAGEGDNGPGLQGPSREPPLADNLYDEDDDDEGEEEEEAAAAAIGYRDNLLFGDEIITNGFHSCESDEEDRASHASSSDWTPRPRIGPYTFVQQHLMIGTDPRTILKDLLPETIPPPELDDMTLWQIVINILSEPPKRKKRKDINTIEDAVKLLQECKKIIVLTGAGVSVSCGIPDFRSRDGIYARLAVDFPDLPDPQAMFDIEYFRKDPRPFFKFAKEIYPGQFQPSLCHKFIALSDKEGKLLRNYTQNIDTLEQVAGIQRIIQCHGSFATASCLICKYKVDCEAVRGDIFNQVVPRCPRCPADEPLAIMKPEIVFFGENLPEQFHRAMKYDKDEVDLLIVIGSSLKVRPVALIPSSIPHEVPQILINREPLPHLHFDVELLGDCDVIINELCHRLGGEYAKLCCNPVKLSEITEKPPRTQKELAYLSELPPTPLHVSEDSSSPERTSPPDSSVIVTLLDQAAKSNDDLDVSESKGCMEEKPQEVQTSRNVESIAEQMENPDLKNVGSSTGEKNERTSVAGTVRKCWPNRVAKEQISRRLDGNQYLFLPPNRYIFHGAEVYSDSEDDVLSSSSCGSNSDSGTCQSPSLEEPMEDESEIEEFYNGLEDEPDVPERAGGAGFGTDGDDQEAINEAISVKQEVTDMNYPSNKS
Protocol: Compounds were tested for Sirt1 activation using the SIRT1 Fluorimetric Drug Discovery Kit (BioMol, Hamburg, Germany), Testing was carried out in duplicate following the manufacturer's instructions. Assay medium: 50mM Tris-HCl pH 8.0, 137 mM NaCl, 2.7 mM KCI, 1 mM MgCl2, 1 mg/ml bovine serum albumin (BSA). Stock solutions of the test compounds (10 mM in DMSO) were used, yielding a final concentration of 10 µM in the assay plate. Readout was obtained by measuring the fluorescence in a microtiter plate reader (excitation: 380 nm; detection: 440 nm).
The agonistic effect on Sirt1 was determined at different concentrations. For this purpose, the test compound stock solutions were diluted to yield concentrations of 0.3, 1, 3, 10 and 30 µM, respectively, in the assay, which was performed as described above. The compound of structure (I-1) was selected for this experiment.
The selectivity of the agonistic effect of the compound of formula (I-1) on different sirtuin isoforms was investigated. For this purpose, in vitro testing was performed as described in Example 1 using the respective SIRT1 Fluorimetric Drug Discovery Kit, SIRT2 Fluorimetric Drug Discovery Kit, and SIRT3 Fluorimetric Drug Discovery Kit (each from BioMol, Hamburg, Germany). […] The dose-response effect is slightly lesser on Sirt3. Table 3: Activity on Sirt1

[1] = tested on: 5'-AMP-activated protein kinase (AMPK); assay: Western blot analysis of AMPK phosphorylation in NHEK; type: cell-based, human; conditions: 48 h;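 as to P-AMPK: Chemiluminescence band density of P-AMPK measured with Multigauge software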
[2] = tested on: normal human epidermal keratinocytes (NHEK); assay: MTT reduction assay, cytotoxicity in NHEK; type: cell-based
Protocol: Culture conditions: 37 °C, 5 % CO2. Culture medium: Keratinocyte-SFM (serum-free medium) containing human recombinant epidermal growth factor (EGF 1-53) 0.25 ng/mL and bovine pituitary extract 25 µg/mL (Gibco; Cat. No. 17005-075), supplemented with gentamycin 25 µg/mL. Assay medium: Keratinocyte-SFM (Gibco; Cat. No. 10744-019), supplemented with gentamycin 25 µg/mL.
NHEK were seeded in 24-well plates (30.000 cells / well) and cultured in culture medium for 24 h and then in assay medium for another 24 h. Medium was then removed and replaced by assay medium containing the respective test compound or reference in defined concentrations.
Cytotoxicity was determined using the 3-(4,5-dimethylthiazol-2-yl)-2,5-diphenyltetrazoliumbromid (MTT) reduction assay (sse T. Mosmann (1983) J. Immunol. Methods. 65, pp. 55-63).

[3] = Experiment 1, Membrane 1, 10 µM
[4] = Experiment 1, Membrane 1, 30 µM

**Q.** Which “Fold increase in sirt1 activity versus control” value (human sirtuin-1 (Sirt1); Example 1(a), 10 µM, trans-resveratrol as control (1.0)) does the source give for `CCOC(=O)c1c(O)cccc1/C=C/c1ccc(OCC)cc1` [(I-1)] here?
**A.** 23.9

**Q.** And the remaining activity at 0.3 µM (human sirtuin-1 (Sirt1); Example 1(b), Table 2, 0.3 µM, read-out: Activity [% control])?
**A.** 147%

**Q.** And the remaining activity at 1 µM (human sirtuin-1 (Sirt1); Example 1(b), Table 2, 1.0 µM, read-out: Activity [% control])?
**A.** 233%

**Q.** And the remaining activity at 3 µM (human sirtuin-1 (Sirt1); Example 1(b), Table 2, 3.0 µM, read-out: Activity [% control])?
**A.** 434%

**Q.** And the remaining activity at 10 µM (human sirtuin-1 (Sirt1); Example 1(b), Table 2, 10.0 µM, read-out: Activity [% control])?
**A.** 626%

**Q.** What about the EC300 (human sirtuin-1 (Sirt1); Example 1(b), concentration that gave 3-times the basal response of the enzyme) of the same compound?
**A.** 2.0 µM

**Q.** What about the remaining activity at 0.3 µM (human sirtuin-1 (Sirt1); Example 2, Table 3, 0.3 µM, read-out: Activity [% control]) of the same compound?
**A.** 111%

**Q.** And the remaining activity at 1 µM (human sirtuin-1 (Sirt1); Example 2, Table 3, 1.0 µM, read-out: Activity [% control])?
**A.** 121%

**Q.** What about the remaining activity at 3 µM (human sirtuin-1 (Sirt1); Example 2, Table 3, 3.0 µM, read-out: Activity [% control]) of the same compound?
**A.** 168%

**Q.** And the remaining activity at 10 µM (human sirtuin-1 (Sirt1); Example 2, Table 3, 10.0 µM, read-out: Activity [% control])?
**A.** 256%

**Q.** And the remaining activity at 30 µM (human sirtuin-1 (Sirt1); Example 2, Table 3, 30.0 µM, read-out: Activity [% control])?
**A.** 515%

**Q.** What about the EC300 (human sirtuin-1 (Sirt1); Example 2, Table 6, Sirt1) of the same compound?
**A.** 12.9 µM

**Q.** And the “AMPK phosphorylation [% Control]” value ([1]; Experiment 1, Membrane 1, 3 µM)?
**A.** 60 % Control

**Q.** And the P-AMPK ([1]; Experiment 1, Membrane 1, 3 µM)?
**A.** 123 AU/mm^2

**Q.** And the “Ratio P-AMPK/ GAPDH” value ([1]; Experiment 1, Membrane 1, 3 µM)?
**A.** 0.26

**Q.** And the “AMPK phosphorylation [% Control]” value [1, 3]?
**A.** 90 % Control

**Q.** And the P-AMPK [1, 3]?
**A.** 202 AU/mm^2

**Q.** What about the “Ratio P-AMPK/ GAPDH” value [1, 3] of the same compound?
**A.** 0.38

**Q.** And the “AMPK phosphorylation [% Control]” value [1, 4]?
**A.** 1006 % Control

**Q.** And the P-AMPK [1, 4]?
**A.** 2554 AU/mm^2

**Q.** And the “Ratio P-AMPK/ GAPDH” value [1, 4]?
**A.** 4.26

**Q.** What about the “cytotoxicity against NHEK” value [2] of the same compound?
**A.** no cytotoxicity
